Source: US9725449B2, “Tricyclic compounds as anticancer agents” (BRISTOL-MYERS SQUIBB COMPANY, priority 2015, dated 2017)

target: BRD4 (Homo sapiens, UniProt O60885); assay: Time resolved fluorescence resonance energy transfer (TR-FRET) binding assay, bromodomain BRD4; conditions: one of the FRET assays described; read-out: FRET BRD4 IC50

| SMILES | IC50 [nM] |
| --- | --- |
| [2H]C([2H])([2H])c1nnn(C)c1-c1cnc2c3c(OC)nc(C(C)(C)O)cc3n(C(c3ccccc3)C3CCC(F)(F)CC3)c2c1 (stereo not shown) [Example 345, 2-{8-[(4,4-Difluorocyclohexyl)(phenyl)methyl]-13-methoxy-5-[4-(^2H3)methyl-1-methyl-1H-1,2,3-triazol-5-yl]-3,8,12-triazatricyclo[7.4.0.0^2,^7]trideca-1(13),2(7),3,5,9,11-hexaen-11-yl}propan-2-ol] | < 1 |
| Cc1nnn(C)c1-c1cnc2c3cc(S(C)(=O)=O)ncc3n([C@H](c3ccccc3F)C3CCOCC3)c2c1 [Example 32, 5-(Dimethyl-1H-1,2,3-triazol-5-yl)-8-[(S)-(2-fluorophenyl)(oxan-4-yl)methyl]-12-methanesulfonyl-3,8,11-triazatricyclo[7.4.0.0^2,^7]trideca-1(13),2(7),3,5,9,11-hexaene] | < 10 |
| Cc1nnn(C)c1-c1cnc2c3ccc(N4CCS(=O)(=O)CC(C)C4)nc3n([C@H](c3ccccc3)C3CCOCC3)c2c1 (stereo partly drawn) [Example 211, 4-[5-(Dimethyl-1H-1,2,3-triazol-5-yl)-8-[(S)-oxan-4-yl(phenyl)methyl]-3,8,10-triazatricyclo[7.4.0.0^2,^7]trideca-1(9),2(7),3,5,10,12-hexaen-11-yl]-6-methyl-1λ^6,4-thiazepane-1,1-dione] | < 10 |
| COc1ncc(C(C)(C)O)c2c1c1ncc(-c3c(C)noc3C)cc1n2[C@H](c1ccccc1)C1CCOCC1 [Example 141, 2-[5-(Dimethyl-1,2-oxazol-4-yl)-13-methoxy-8-[(S)-oxan-4-yl(phenyl)methyl]-3,8,12-triazatricyclo[7.4.0.0^2,^7]trideca-1(9),2,4,6,10,12-hexaen-10-yl]propan-2-ol] | < 10 |
| [2H]C([2H])([2H])c1nnn(C)c1-c1cnc2c3ccc(N4CCS(=O)(=O)CC4)nc3n([C@H](c3ccccc3)C3CCOCC3)c2c1 [Example 185, 4-{5-[4-(^2H3)Methyl-1-methyl-1H-1,2,3-triazol-5-yl]-8-[(S)-oxan-4-yl(phenyl)methyl]-3,8,10-triazatricyclo[7.4.0.0^2,^7]trideca-1(9),2(7),3,5,10,12-hexaen-11-yl}-1λ^6,4-thiomorpholine-1,1-dione] | < 10 |
| [2H]C([2H])([2H])c1nnn(C)c1-c1cnc2c3c(N(C)C(C)C)ncc(S(C)(=O)=O)c3n([C@H](c3ccccc3)C3CCOCC3)c2c1 [Example 116, 10-Methanesulfonyl-N-methyl-5-[4-(^2H3)methyl-1-methyl-1H-1,2,3-triazol-5-yl]-8-[(S)-oxan-4-yl(phenyl)methyl]-N-(propan-2-yl)-3,8,12-triazatricyclo[7.4.0.0^2,^7]trideca-1(13),2(7),3,5,9,11-hexaen-13-amine] | < 1 |
| [2H]C([2H])([2H])c1nnn(C)c1-c1cnc2c3ccc(N4CC(=O)NC(=O)C4)nc3n([C@H](c3ccccc3)C3CCOCC3)c2c1 [Example 212, 4-{5-[4-(^2H3)Methyl-1-methyl-1H-1,2,3-triazol-5-yl]-8-[(S)-oxan-4-yl(phenyl)methyl]-3,8,10-triazatricyclo[7.4.0.0^2,^7]trideca-1(9),2(7),3,5,10,12-hexaen-11-yl}piperazine-2,6-dione] | < 10 |
| [2H]C([2H])([2H])N1CCN(c2ncc3c4ncc(-c5c(C)nnn5C)cc4n([C@H](c4ccccc4)C4CCOCC4)c3n2)CC1 [Example 156, 5-(Dimethyl-1H-1,2,3-triazol-5-yl)-11-[4-(^2H3)methylpiperazin-1-yl]-8-[(S)-oxan-4-yl(phenyl)methyl]-3,8,10,12-tetraazatricyclo[7.4.0.0^2,^7]trideca-1(9),2(7),3,5,10,12-hexaene] | < 10 |
| [2H]C([2H])([2H])c1nnn(C)c1-c1cnc2c3ccc(N4CCN(C5CC5)CC4)nc3n([C@H](c3ccccc3)C3CCOCC3)c2c1 [Example 151, 11-(4-Cyclopropylpiperazin-1-yl)-5-[4-(^2H3)methyl-1-methyl-1H-1,2,3-triazol-5-yl]-8-[(S)-oxan-4-yl(phenyl)methyl]-3,8,10-triazatricyclo[7.4.0.0^2,^7]trideca-1(9),2(7),3,5,10,12-hexaene] | < 10 |
| [2H]C([2H])([2H])c1nnn(C)c1-c1cnc2c3cnc(OC)cc3n([C@H](c3ccccc3)C3CCOCC3)c2c1 [Example 287, 11-Methoxy-5-[4-(^2H3)methyl-1-methyl-1H-1,2,3-triazol-5-yl]-8-[(S)-oxan-4-yl(phenyl)methyl]-3,8,12-triazatricyclo[7.4.0.0^2,^7]trideca-1(9),2(7),3,5,10,12-hexaene] | < 1 |
| COC(=O)c1cnc(OC)c2c3ncc(-c4c(C)noc4C)cc3n([C@H](c3ccccc3)C3CCOCC3)c12 [Example 140, Methyl 5-(dimethyl-1,2-oxazol-4-yl)-13-methoxy-8-[(S)-oxan-4-yl(phenyl)methyl]-3,8,12-triazatricyclo[7.4.0.0^2,^7]trideca-1(13),2(7),3,5,9,11-hexaene-10-carboxylate] | < 1 |
| [2H]C([2H])([2H])c1nnn(C)c1-c1cnc2c3cnc(C(C)(C)O)cc3n(C(CCC)c3ncccc3F)c2c1 (stereo not shown) [Example 359, 2-{8-[1-(3-Fluoropyridin-2-yl)butyl]-5-[4-(^2H3)methyl-1-methyl-1H-1,2,3-triazol-5-yl]-3,8,12-triazatricyclo[7.4.0.0^2,^7]trideca-1(13),2(7),3,5,9,11-hexaen-11-yl}propan-2-ol] | < 10 |
| Cc1noc(C)c1-c1cnc2c3c(NS(=O)(=O)C4CC4)ncc(S(C)(=O)=O)c3n([C@H](c3ccccc3)C3CCOCC3)c2c1 [Example 98, N-[5-(Dimethyl-1,2-oxazol-4-yl)-10-methanesulfonyl-8-[(S)-oxan-4-yl(phenyl)methyl]-3,8,12-triazatricyclo[7.4.0.0^2,^7]trideca-1(13),2(7),3,5,9,11-hexaen-13-yl]cyclopropanesulfonamide] | < 10 |
| [2H]C([2H])([2H])c1nnn(C)c1-c1cnc2c3ccc(N(C)CCNC)nc3n([C@H](c3ccccc3F)C3CCOCC3)c2c1 [Example 236, 8-[(S)-(2-Fluorophenyl)(oxan-4-yl)methyl]-N-methyl-5-[4-(^2H3)methyl-1-methyl-1H-1,2,3-triazol-5-yl]-N-[2-(methylamino)ethyl]-3,8,10-triazatricyclo[7.4.0.0^2,^7]trideca-1(13),2(7),3,5,9,11-hexaen-11-amine] | < 1 |
| [2H]C([2H])([2H])c1nnn(C)c1-c1cnc2c3cnc(C(C)(C)O)cc3n(C(CCC)c3ncccc3F)c2c1 (stereo not shown) [Example 360, 2-{8-[1-(3-Fluoropyridin-2-yl)butyl]-5-[4-(^2H3)methyl-1-methyl-1H-1,2,3-triazol-5-yl]-3,8,12-triazatricyclo[7.4.0.0^2,^7]trideca-1(13),2(7),3,5,9,11-hexaen-11-yl}propan-2-ol] | < 10 |
| [2H]C([2H])([2H])c1nnn(C)c1-c1cnc2c3c(OC)ncc(S(C)(=O)=O)c3n([C@H](c3ccc(F)cc3)C3CCC(F)(F)CC3)c2c1 [Example 95, 8-[(S)-(4,4-Difluorocyclohexyl)(4-fluorophenyl)methyl]-10-methanesulfonyl-13-methoxy-5-[4-(^2H3)methyl-1-methyl-1H-1,2,3-triazol-5-yl]-3,8,12-triazatricyclo[7.4.0.0^2,^7]trideca-1(13),2(7),3,5,9,11-hexaene] | < 10 |
